Reference: patent US20240043448A1, “Small Molecule Inhibitors of KRAS G12C Mutant” (Merck Sharp & Dohme LLC, priority 2019, published 2024)
Like-named read-outs stand apart in the source and are kept apart here.

How the values were obtained:
[1] = molecular target: Biotinylated KRAS G12C protein (Homo sapiens (Human), UniProt P01116, C118S/C51S/C80L/G12C); experiment: SOS-catalyzed nucleotide exchange assay (TR-FRET); format: biochemical; conditions: in vitro apparent potency; preincubation time of 60 minutes prior to addition of SOS
Experimental: The SOS-catalyzed nucleotide exchange assay utilizes a preformed complex of recombinant biotinylated KRAS protein containing G12C/C51S/C80L/C118S mutations (183 amino acids; biotin on K10; leader sequence which is an AviTag; referred to as SEQ ID NO: 1 or “Biotinylated KRAS G12C protein” hereafter), Bodipy-GDP, and Terbium-streptavidin. Compounds are added to this complex and then after incubation for 60 minutes, the mixture is treated with recombinant SOS protein and unlabeled GTP. Small molecule inhibitors stabilize the Bodipy-GDP complex whereas the untreated protein rapidly exchanges Bodipy-GDP for unlabeled GTP resulting in reduced TR-FRET signal.
Biotinylated KRAS G12C protein (SEQ ID NO: 1) is diluted to 2 μM in an EDTA buffer (20 mM HEPES, 150 mM sodium chloride, 10 mM EDTA, and 0.01% Tween) and incubated at room temperature for one hour. This mixture is then further diluted to 90 nM in an assay buffer (20 mM HEPES, 150 mM sodium chloride, 10 mM magnesium chloride, and 0.005% Tween) containing 15 nM of Terbium-Streptavidin (Invitrogen, catalog #PV3577) and 900 nM of Bodipy-GDP and incubated at room temperature for six hours. This solution is referred to as Biotinylated KRAS G12C mixture.
Each test compound (10 mM stock in DMSO) is diluted in DMSO to make a 10-point, 3-fold dilution series in a 384-well low dead volume microplate (Labcyte, catalog #LP-0200). Once titrations are made, 10 nL of the diluted compounds is acoustically dispensed into a 384-well plate (Corning, catalog #3820) using an Echo 550 (Labcyte).
Each well of the plate receives 3 μL Biotinylated KRAS G12C mixture that had been incubating for six hours and 3 μL of assay buffer using a BioRAPTR (Beckman Coulter) and is incubated at room temperature for 60 minutes. Each well then receives 3 μL of 240 nM recombinant human SOS protein and 9 mM GTP (Sigma, G8877) in assay buffer and is incubated at room temperature for 60 minutes.
The time-resolved fluorescence resonance energy transfer signal of the plate is measured on an Envision (PerkinElmer) plate reader: Excitation filter=340 nm; emission1=495 nm; emission2=520 nm; dichroic mirror=D400/D505; delay time=100 μs. The signal of each well is determined as the ratio of the emission at 520 nm to that at 495 nm. Percent effect of each well is determined after normalization to control wells containing DMSO (no effect) or a saturating concentration of inhibitor (max effect). The apparent effect as a function of compound concentration is fit to a four parameter logistic equation.

phospho-ERK = experiment: Cellular phospho-ERK assay; format: cell-based; conditions: NCI-H358 cells, 2 hour incubation, ratio of p-Erk vs total Erk, read-out: IC50 (nM) pERK (Cell)
Experimental: NCI-H358 cells (ATCC® CRL-5807™) were cultured in T150 flask in growth medium (RPMI medium 1640-GlutaMAX™-I (ThermoFisher Scientific 61870) containing 10% fetal bovine serum (ThermoFisher Scientific 10091148)). The cells were harvested in growth medium after TrypLE (ThermoFisher scientific 12604021) digestion and were seeded in a 384-well collagen coated cell culture plate (Corning 356702) at a density of 15,000 cells/well, and incubated at 37° C., 5% CO2 overnight. The compound dose-response titrations were prepared and appropriate amounts of compounds were dispensed in a 384-well intermediate plate using an Echo 550 liquid handler. RPMI medium 1640-GlutaMAX™-I were added to the intermediate plate and transferred to 384-well cell culture plate, which was incubated at 37° C., 5% CO2 for 2 hours. After removal of medium from the plate, cells were lysed in lysis buffer from Alpha SureFire® Ultra™ Multiplex p-Erk and total Erk assay kit (PerkinElmer MPSU-PTERK) containing Halt™ Protease and Phosphotase inhibitor cocktail (ThermoFisher Scientific 78446) at room temperature with constant shaking at 300 rpm for 30 minutes. The cell lysates were then transferred to OptiPlate-384 plate (PerkinElmer 6005620) and the phosphorylation of Erk and total Erk levels were detected by Alpha SureFire Ultra Multiplex p-Erk kit (PerkinElmer MPSU-PTERK) following the manufacturer's protocol. Assay plates were read on an EnVision Multimode Plate Reader (PerkinElmer), and the ratio of p-Erk vs total Erk in each well was used as the final readout. Dose response curves were analyzed using a 4-parameter logistic model to calculate IC50 values using spotfire software.

Row | Molecule | IC50 [1] [nM] | IC50 (phospho-ERK) [nM] | IC50 (phospho-ERK; Homo sapiens, NCI-H358, 2 h) [nM]
1 | C=CC(=O)N1CCN(c2nc(=O)n3c4nc(c(F)cc24)-c2c(F)cccc2CC[C@@H](O)Cc2ccnc(C(C)C)c2-3)[C@@H](C)C1 [Example 118-2, 17,20-difluoro-11-hydroxy-2-[(2S)-2-methyl-4-(prop-2-enoyl)piperazin-1-yl]-6-(propan-2-yl)-10,11,12,13-tetrahydro-4H-1,18-ethenopyrido[3,4-e]pyrimido[6,1-c][2,4]benzodiazacyclododecin-4-one] | 54 | 1220 | 
2 | C=CC(=O)N1CCN(c2nc(=O)n3c4nc(c(F)cc24)-c2c(F)cccc2OCCCc2ccnc(C(C)C)c2-3)C(Cc2ccccc2)C1 (centres unmarked) [Example 100, 2-[2-benzyl-4-(prop-2-enoyl)piperazin-1-yl]-17,20-difluoro-6-(propan-2-yl)-11,12-dihydro-4H,10H-1,18-ethenopyrido[4,3-e]pyrimido[1,6-g][1,7,9]benzoxadiazacyclododecin-4-one] | 25 |  | 508
3 | C=CC(=O)N1CCN(c2nc(=O)n3c4nc(c(F)cc24)-c2c(F)cccc2OCCCCc2ccnc(C(C)C)c2-3)[C@@H](C)C1 (single isomer, unassigned) [Example 4a] | 2.4 | 1.5 | 
4 | C=CC(=O)N1CCN(c2nc(=O)n3c4nc(c(F)cc24)-c2c(ccc(F)c2F)OCC(F)(F)CCc2ccnc(C(C)C)c2-3)C[C@H]1C [Example 66, 12,12,17,18,21-pentafluoro-2-[(3R)-3-methyl-4-(prop-2-enoyl)piperazin-1-yl]-6-(propan-2-yl)-10,11,12,13-tetrahydro-4H-1,19-(ethanediylidene) pyrido[4,3-f]pyrimido[1,6-h] [1,8,10]benzoxadiazacyclo-tridecin-4-one] | 5.3 |  | 30
5 | C=CC(=O)N1CCN(c2nc(=O)n3c4nc(c(F)cc24)-c2c(F)cccc2OCCCc2ccnc(C(C)C)c2-3)[C@@H](CC)C1 [Example 98, 2-[(25)-2-ethyl-4-(prop-2-enoyl)piperazin-1-yl]-17,20-difluoro-6-(propan-2-yl)-11,12-dihydro-4H,10H-1,18-(ethanediylidene)pyrido[4,3-e]pyrimido[1,6-g][1,7,9] benzoxadiazacyclododecin-4-one] | 11 |  | 49
6 | 17,20-difluoro-12-hydroxy-2-[(2S)-2-methyl-4-(prop-2-enoyl)piperazin-1-yl]-6-(propan-2-yl)-10,11,12,13-tetrahydro-4H-1,18-ethenopyrido[3,4-e]pyrimido[6,1-c][2,4]benzodiazacyclododecin-4-one [Example 118-1] | 192 | 651 | 
7 | C=CC(=O)N1C[C@H](C)N(c2nc(=O)n3c4nc(c(F)cc24)-c2c(ccc(F)c2F)OCCCc2ccnc(C(C)C)c2-3)C[C@H]1C [Example 78, 2-[(2S,5R)-2,5-dimethyl-4-(prop-2-enoyl)piperazin-1-yl]-16,17,20-trifluoro-6-(propan-2-yl)-11,12-dihydro-4H,10H-1,18-ethenopyrido[4,3-e]pyrimido[1,6-g][1,7,9]benzoxadiazacyclododecin-4-one] | 2.4 |  | 18
8 | C=CC(=O)N1C[C@H](C)N(c2nc(=O)n3c4nc(c(F)cc24)-c2cc(F)cc4cnn(c24)CCCCc2ccnc(C(C)C)c2-3)C[C@H]1C [Example 108, 2-[(2S,5R)-2,5-dimethyl-4-(prop-2-enoyl)piperazin-1-yl]-18,22-difluoro-6-(propan-2-yl)-10,11,12,13-tetrahydro-4H-1,20-(ethanediylidene)pyrido [4′,3′:12,13]pyrimido[1′,6′:1,2][1,3,7] triazacyclotridecino[5,6,7-hi]indazol-4-one] | 20 |  | 68
9 | C=CC(=O)N1CC(C)N(c2nc(=O)n3c4nc(c(Cl)cc24)-c2c(F)cccc2COCCc2ccnc(C(C)C)c2-3)CC1C [Example 109, 20-chloro-2-[(2S,5R)-2,5-dimethyl-4-(prop-2-enoyl)piperazin-1-yl]-17-fluoro-6-(propan-2-yl)-10,11-dihydro-1,18-ethenopyrido[3,4-e]pyrimido[6,1-c][9,2,4]benzoxadiazacyclododecin-4(13H)-one] | 2.3 | 21 | 
10 | C=CC(=O)N1CCN(c2nc(=O)n3c4nc(c(F)cc24)-c2c(F)cccc2OCCCc2ccnc(C(C)C)c2-3)C[C@@H]1CC#N (single isomer, unassigned) [Example 11a] | 19 |  | 395
11 | C=CC(=O)N1CCN(c2nc(=O)n3c4nc(c(F)cc24)-c2ccnn2CCCCc2ccnc(C(C)C)c2-3)[C@@H](C)C1 [Example 5, 20-fluoro-2-[(2S)-2-methyl-4-(prop-2-enoyl)piperazin-1-yl]-6-(propan-2-yl)-10,11,12,13-tetrahydro-4H-1,18-(ethanediylidene)-pyrazolo[5,1-e]pyrido-[4,3-k]pyrimido[1,6-a]-[1,3,6]triazacyclododecin-4-one] | 898 |  | 4440
12 | C=CC(=O)N1CCN(c2nc(=O)n3c4nc(c(F)cc24)-c2cccnc2OCCCOc2ccnc(C(C)C)c2-3)[C@@H](C)C1 (single isomer, unassigned) [Example 2a] | 2680 |  | 13900
13 | C=CC(=O)N1C[C@H](C)N(c2nc(=O)n3c4nc(c(F)cc24)-c2c(ccc(F)c2F)OCC2(CCc4ccnc(C(C)C)c4-3)CC2)C[C@H]1C [Example 62, 2′-[(2S,5R)-2,5-dimethyl-4-(prop-2-enoyl)piperazin-1-yl]-17′,18′,21′-trifluoro-6′-(propan-2-yl)-10′,11′-dihydro-4′H,13′H-spiro[cyclopropane-1,12′-[14]oxa [3,5,7,20]tetraaza[1,19] (ethanediylidene)pyrido[4,3-f]pyrimido[1,6-h][1,8,10]benzoxadiazacyclotri-decin]-4′-one] | 3.5 |  | 54
14 | C=CC(=O)N1C[C@H](C)N(c2nc(=O)n3c4nc(c(F)cc24)-c2c(F)ccc(F)c2OCCOc2ccnc(Cl)c2-3)C[C@H]1C [Example 87, 6-chloro-2-[(2S,5R)-2,5-dimethyl-4-(prop-2-enoyl)piperazin-1-yl]-14,17,20-trifluoro-11,12-dihydro-4H-1,18-ethenopyrido[4,3-e]pyrimido[1,6-g][1,4,7,9] benzodioxadiazacyclododecin-4-one] | 461 |  | 3210
15 | C=CC(=O)N1[C@H](C)CN(c2nc(=O)n3c4nc(c(F)cc24)-c2c(F)cccc2OCCCCc2ccnc(C(C)C)c2-3)C[C@@H]1C [Example 7, 2-[(3R,5S)-3,5-dimethyl-4-(prop-2-enoyl)piperazin-1-yl]-18,21-difluoro-6-(propan-2-yl)-10,11,12,13-tetrahydro-4H-1,19-ethenopyrido[4,3-f]pyrimido[1,6-h][1,8,10]benzoxadiazacyclotridecin-4-one] | 6.9 | 34 | 
16 | C=CC(=O)N1C[C@H](C)N(c2nc(=O)n3c4nc(c(F)cc24)-c2c(F)cccc2OCCCCc2cnc(C(C)C)c-3c2C)C[C@H]1C (single isomer, unassigned) [Example 89] | 71 | 4160 | 
